These results are taken from ChEMBL document CHEMBL1201862, “PubChem BioAssay data set” (2004).

Molecules are shown by their SMILES.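 Dose response: 5 concentrations. Exposure: 48 h. Format: 96-well plates. Endpoint: linear interpolation; highest concentration if not reached. Here, GI50 denotes the concentration required for 50% inhibition of growth.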 Active and inactive are the calls of the source. No stated cut-off is given here; in the data, active = GI50 up to about 1.1 µM and inactive = higher. Bounds are passed on as bounds.

Some test systems named below: ACHN; CAKI-1; COLO 205; DLD-1; HL-60; K562; KM12; M14; SF-268; SF-539; SK-MEL-5; SK-OV-3; HOP-92; SK-MEL-2; U-251; BT-549; DU-145; Hs-578T; MCF7; PC-3.
Common to all, as to test: NCI-60 cell line screen, 48 h

`COc1ccc(CC#N)c(OCc2ccccc2)c1`: the GI50 in the assay with ACHN was 27 µM (inactive); with CAKI-1, > 100 µM (inactive); in the assay on COLO 205, 40.4 µM (inactive); in the assay with DLD-1, 28.1 µM (inactive); in the assay on HL-60, > 10 µM (inactive); in the assay on K562 it was 58.6 µM (inactive). The GI50 in the assay with KM12 is 61.5 µM (inactive); with M14, 35.6 µM (inactive); with SF-268 it was 68.4 µM (inactive); with SF-539 it was > 100 µM (inactive); with SK-MEL-5 it was 19.7 µM (inactive).
Take `O=c1c2ccccc2oc2ccccc12.Oc1cccc2cccnc12`: the GI50 is 3.12 µM (inactive) in the assay on ACHN; 3.9 µM (inactive) in the assay with CAKI-1; 3.05 µM (inactive) in the assay with COLO 205; 1.76 µM (inactive) with DLD-1; 0.67 µM (active) in the assay with HL-60; 4.99 µM (inactive) in the assay on K562. Moreover, the GI50 with KM12 was 5.3 µM (inactive); in the assay on M14, 3.11 µM (inactive); with SF-268 it was 2.75 µM (inactive); with SF-539, 2.36 µM (inactive); in the assay with SK-MEL-5, 1.95 µM (inactive); with SK-OV-3 it was < 0.01 µM (active).
In the case of `O=C(O)c1ccc(/N=N/c2cc(S(=O)(=O)O)c3cccnc3c2O)cc1`, the GI50 in the assay with ACHN was > 100 µM (inactive); in the assay on CAKI-1, > 100 µM (inactive); with COLO 205, > 100 µM (inactive); with DLD-1, 63.4 µM (inactive); with HL-60, > 100 µM (inactive); with HOP-92 it was > 100 µM (inactive). In addition, the GI50 in the assay on K562, in the assay on KM12, in the assay with SF-268, in the assay with SF-539, with SK-MEL-2 and with SK-MEL-5 was > 100 µM (inactive) each time. Further, the GI50 with SK-OV-3 and in the assay on U-251 was > 100 µM (inactive) each time.
On to `CCCCOC(=O)NC(=O)c1cn(CCSCCOC(=O)NCCCCCCNC(=O)OCCSCCn2cc(C(=O)NC(=O)OCCCC)c(=O)[nH]c2=O)c(=O)[nH]c1=O`, for which the GI50 in the assay on ACHN is > 100 µM (inactive); in the assay with COLO 205, > 100 µM (inactive); in the assay with DLD-1 it was > 100 µM (inactive); in the assay with HL-60, > 100 µM (inactive); in the assay with HOP-92, 21.5 µM (inactive); in the assay with K562, > 100 µM (inactive). For the same molecule, the GI50 is > 100 µM (inactive) in the assay on KM12; 58.9 µM (inactive) in the assay with M14; > 100 µM (inactive) with SF-268; > 100 µM (inactive) in the assay on SF-539; 56.9 µM (inactive) with SK-MEL-2; > 100 µM (inactive) in the assay on SK-MEL-5. In addition, the figures for the GI50 in the assay on SK-OV-3 and with U-251 were 30.1 µM (inactive) and 23.4 µM (inactive), respectively.
`CCOc1ccc(NC2=NC(=O)C(CC(=O)Nc3ccc(Cl)cc3Cl)S2)cc1` (stereo not drawn): the GI50 in the assay on ACHN, with CAKI-1, in the assay with COLO 205, in the assay with DLD-1, in the assay with K562 and in the assay on KM12 was > 100 µM (inactive) throughout. In addition, the GI50 with M14, in the assay with SF-268, in the assay on SF-539, in the assay on SK-MEL-2, with SK-MEL-5 and in the assay with SK-OV-3 was > 100 µM (inactive) each time. Also, the GI50 in the assay with U-251 is > 100 µM (inactive).
`COC(=O)C(C(=O)C(=O)Nc1nc2ccc(OC)cc2s1)c1cnc2ccccc2n1` (stereo not drawn): the GI50 with ACHN, in the assay on CAKI-1, in the assay with COLO 205, with DLD-1, in the assay with HOP-92 and in the assay with K562 was > 100 µM (inactive) each time. The GI50 with KM12, with M14, in the assay on SF-268, in the assay with SF-539, in the assay on SK-MEL-5 and with SK-OV-3 was > 100 µM (inactive) throughout. The GI50 in the assay on U-251 is > 100 µM (inactive).
With `FC(F)(F)c1ccccc1C1SCc2nc3ccccc3n21` (stereo not drawn), the GI50 with ACHN is 40.6 µM (inactive); with CAKI-1, 32.6 µM (inactive); with COLO 205, 59.8 µM (inactive); in the assay with DLD-1, 52.2 µM (inactive); with HL-60, 10.2 µM (inactive); with HOP-92 it was 4.67 µM (inactive). Moreover, the GI50 in the assay with K562 is 16.2 µM (inactive); in the assay on KM12 it was 70.8 µM (inactive); in the assay with SF-268 it was 61.9 µM (inactive); in the assay on SF-539 it was 85.7 µM (inactive); in the assay on SK-MEL-2 it was 99.3 µM (inactive); in the assay on SK-MEL-5, > 10 µM (inactive). The GI50 in the assay with SK-OV-3 is 60.7 µM (inactive); in the assay on U-251 it was 88.5 µM (inactive).
In the case of `O=C(O)CS` [THIOGLYCOLIC ACID], the GI50 in the assay on CAKI-1, in the assay with COLO 205, in the assay on DLD-1, with HL-60, with HOP-92 and in the assay with K562 was > 100 µM (inactive) in each case. Also, the GI50 in the assay with KM12, with SF-268, in the assay on SF-539, with SK-MEL-2, in the assay on SK-MEL-5 and in the assay with SK-OV-3 was > 100 µM (inactive) in each case. Also, the GI50 in the assay with U-251 is > 100 µM (inactive).
Consider `O=C(O)CN(c1ccccc1)S(=O)(=O)c1ccc(Cl)cc1`, for which the GI50 in the assay with ACHN, in the assay on CAKI-1, in the assay with COLO 205, in the assay on DLD-1, in the assay on HL-60 and with HOP-92 was > 100 µM (inactive) in each case. Also, the GI50 with K562, in the assay with M14, in the assay on SF-268, with SF-539, in the assay with SK-MEL-2 and in the assay on SK-OV-3 was > 100 µM (inactive) each time. The GI50 in the assay on U-251 was > 100 µM (inactive).
On to `O=C1Oc2ccccc2C(=O)/C1=C/N1C(=O)/C(=C/c2ccc([N+](=O)[O-])cc2)SC1=S`, for which the GI50 with ACHN was 15.6 µM (inactive); in the assay with BT-549, 7.16 µM (inactive); in the assay with CAKI-1, 24.5 µM (inactive); in the assay with COLO 205, 20.5 µM (inactive); in the assay with DU-145, 25.7 µM (inactive); in the assay on HL-60 it was 36.1 µM (inactive). Moreover, the GI50 is 1.08 µM (active) in the assay on HOP-92; 6.59 µM (inactive) in the assay on Hs-578T; 19.4 µM (inactive) in the assay with K562; 19 µM (inactive) with KM12; 22.8 µM (inactive) in the assay with M14; 35.6 µM (inactive) with MCF7. The GI50 with PC-3 was 18.2 µM (inactive); in the assay on SF-268 it was 23.2 µM (inactive); with SF-539, 21.8 µM (inactive); with SK-MEL-2, 24 µM (inactive); in the assay on SK-MEL-5, 19.7 µM (inactive); in the assay on SK-OV-3 it was 31.5 µM (inactive). Besides, the GI50 with U-251 was 18.9 µM (inactive).
Regarding `COc1cc2ccc(CC(=O)O)cc2cc1OC`, the GI50 in the assay on ACHN, in the assay with CAKI-1, in the assay on COLO 205, in the assay on DLD-1, with HL-60 and with K562 was > 100 µM (inactive) throughout. The GI50 in the assay on KM12, in the assay on M14, in the assay on SF-268, with SK-MEL-2, in the assay on SK-MEL-5 and in the assay on SK-OV-3 was > 100 µM (inactive) in each case. The GI50 with U-251 is > 100 µM (inactive).
Consider `CN(C)c1snc2c1c(=O)n(C)c(=O)n2C`, for which the GI50 with ACHN, in the assay on CAKI-1, in the assay with COLO 205, in the assay on DLD-1, in the assay with HL-60 and in the assay on K562 was > 100 µM (inactive) throughout. In addition, the GI50 with SF-268, with SF-539, in the assay with SK-MEL-2, in the assay with SK-MEL-5, with SK-OV-3 and in the assay on U-251 was > 100 µM (inactive) in each case.
`O=C(C[n+]1ccccc1)N/N=C(\Cc1nc2ccc([N+](=O)[O-])cc2nc1O)C(=O)Nc1cc(Cl)c(Cl)cc1Cl`: the GI50 in the assay on ACHN is > 100 µM (inactive); with BT-549 it was > 100 µM (inactive); with CAKI-1 it was 65.6 µM (inactive); with COLO 205, 76.2 µM (inactive); in the assay with DU-145, > 100 µM (inactive); in the assay on HL-60, > 100 µM (inactive). Moreover, the GI50 in the assay with HOP-92 was > 100 µM (inactive); with Hs-578T, > 100 µM (inactive); in the assay with K562, > 100 µM (inactive); with KM12, 60.3 µM (inactive); in the assay on M14 it was > 100 µM (inactive); in the assay on MCF7, 67.3 µM (inactive). For the same molecule, the GI50 with PC-3 was > 100 µM (inactive); in the assay on SF-268, > 100 µM (inactive); with SF-539, > 100 µM (inactive); in the assay on SK-MEL-2 it was > 100 µM (inactive); in the assay with SK-MEL-5, 95.1 µM (inactive); in the assay with SK-OV-3, > 100 µM (inactive). In the assay on U-251, the GI50 is > 100 µM (inactive).
Turning to `O=[N+]([O-])c1cccc(C2=NN(c3ccccc3)C3c4cc(Br)ccc4OCC23)c1` (stereo not drawn), the GI50 was > 100 µM (inactive) in the assay with ACHN; > 100 µM (inactive) with COLO 205; > 100 µM (inactive) in the assay with DLD-1; > 100 µM (inactive) in the assay on HL-60; 12 µM (inactive) in the assay with HOP-92; > 100 µM (inactive) in the assay on K562. The GI50 with KM12 is 81.8 µM (inactive); in the assay with SF-268 it was > 100 µM (inactive); with SF-539 it was > 100 µM (inactive); in the assay on SK-MEL-2 it was > 100 µM (inactive); with SK-MEL-5, > 100 µM (inactive); in the assay on SK-OV-3, > 100 µM (inactive). Also, the GI50 with U-251 was > 100 µM (inactive).
